According to patent US6407076B1, “Adenosine analogues and related method of treatment” (SmithKline Beecham Corporation, priority 1997, dated 2002):

Tests used:
[1] = target: T1, human adenosine A1 receptor (Homo sapiens, UniProt P30542); test: Reporter gene (CRE/SPAP) agonist assay in CHO cells, adenosine A1 receptor; type: cell-based; details: CHO cells with human A1 receptor; inhibition of forskolin-stimulated SPAP production; potency relative to NECA=1
T1 construct: expressed in transfected cells; host or cells: Chinese hamster ovary (CHO) cells containing CRE/SPAP/HYG reporter elements
T1 sequence (P30542 1-326): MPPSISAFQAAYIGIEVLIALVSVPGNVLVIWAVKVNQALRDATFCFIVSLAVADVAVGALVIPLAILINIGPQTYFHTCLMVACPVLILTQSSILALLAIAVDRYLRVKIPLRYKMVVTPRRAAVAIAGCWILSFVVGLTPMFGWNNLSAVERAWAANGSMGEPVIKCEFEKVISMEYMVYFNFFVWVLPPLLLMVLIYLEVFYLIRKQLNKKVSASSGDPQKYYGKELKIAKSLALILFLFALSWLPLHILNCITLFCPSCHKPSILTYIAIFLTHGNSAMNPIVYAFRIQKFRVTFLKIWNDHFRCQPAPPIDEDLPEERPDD
Experimental: Agonist activity was measured in Chinese hamster ovary (CHO) cells containing the CRE/SPAP/HYG (CRE=cyclic AMP response element; HYG=hygromycin resistance; SPAP=secreted placental alkaline phosphatase) reporter gene elements, which upon stimulation of cAMP levels produced SPAP. A cell line was used, which was stably transfected with either the human adenosine A1 receptor or the human adenosine A3 receptor in addition to the above elements. Cells were plated out in 96-well plates in culture medium and incubated at 37° C. for 1 hour. […] All cells were then incubated for a further 5 hours at 37° C., and cooled to room temperature, after which a substrate for the phosphatase (para-nitrophenol phosphate, pNPP), which is converted by SPAP to a coloured reagent) was then added and the 96-well plates were read in a plate reader. From these readings, the concentration-dependence of the inhibition by the agonist for forskolin-stimulated SPAP production can be calculated.
(ECR=equipotent concentration ratio relative to NECA=1)

[2] = target: T2, human adenosine A3 receptor (Homo sapiens, UniProt P0DMS8); test: Reporter gene (CRE/SPAP) agonist assay in CHO cells, adenosine A3 receptor; details: CHO cells with human A3 receptor; inhibition of forskolin-stimulated SPAP production; potency relative to NECA=1
T2 sequence (P0DMS8 1-318): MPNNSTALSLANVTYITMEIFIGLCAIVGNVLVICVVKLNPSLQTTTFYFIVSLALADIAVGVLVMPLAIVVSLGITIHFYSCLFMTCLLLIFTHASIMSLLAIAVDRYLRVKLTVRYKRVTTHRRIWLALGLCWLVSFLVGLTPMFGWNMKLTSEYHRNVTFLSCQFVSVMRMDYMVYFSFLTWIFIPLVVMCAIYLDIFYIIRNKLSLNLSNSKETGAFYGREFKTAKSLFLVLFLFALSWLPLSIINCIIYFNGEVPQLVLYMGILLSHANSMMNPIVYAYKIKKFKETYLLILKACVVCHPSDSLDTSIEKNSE

SMILES	A1 ECR (equipotent concentration ratio relative to NECA=1) [1]	A3 ECR (equipotent concentration ratio relative to NECA=1) [2]	melting point
OCC(O)CNc1ncnc2c1ncn2[C@@H]1O[C@H](COC(F)(F)F)[C@@H](O)[C@H]1O (relative stereo) [Example 20, N-(rel-2,3-Dihydroxy-propyl)-5′-O-trifiuoromethyl-adenosine]	24.10	284.5	–
O[C@@H]1[C@H](O)[C@@H](COC(F)(F)F)O[C@H]1n1cnc2c(NC3CCOCC3)ncnc21 [Example 1, N-(Tetrahydro-pyran-4-yl)-5′-O-trifluoromethyladenosine]	8.40	>129	–
O[C@@H]1[C@H](O)[C@@H](COC(F)(F)F)O[C@H]1n1cnc2c(NCCc3ccncc3)ncnc21 [Example 2, N-(2-Pyridin-4-yl-ethyl)-5′-O-trifluoromethyladenosine]	185.5	–	–
O[C@@H]1[C@H](O)[C@@H](COC(F)(F)F)O[C@H]1n1cnc2c(NC3CC4CCC3C4)ncnc21 (stereo partly drawn) [Example 3, N-(exo-Bicyclo[2.2.1]hept-2-yl)-5′-O-trifluoromethyl-adenosine]	–	143.5	–
Nc1ncnc2c1ncn2[C@@H]1O[C@H](COC(F)(F)F)[C@@H](O)[C@H]1O [Example 4, 5′-O-Trifluoromethyladenosine]	80.7	81.6	–
CNS(=O)(=O)CCNc1ncnc2c1ncn2[C@@H]1O[C@H](COC(F)(F)F)[C@@H](O)[C@H]1O [Example 5, 2-[9-(3R,4S-Dihydroxy-5R-trifluoromethoxymethyl-tetrahydro-furan-2R-yl)-9H-purin-6-ylamino]-ethanesulfonic Acid Methylamide]	33.2	>212	–
O[C@@H]1[C@H](O)[C@@H](COCC(F)(F)F)O[C@H]1n1cnc2c(NC3CCCC3)ncnc21 [Example 6, N-Cyclopentyl-5′-O-(2,2,2-trifluoro-ethyl)-adenosine]	8.70	7.7	74 to 76 °C
O[C@@H]1[C@H](O)[C@@H](COCC(F)(F)F)O[C@H]1n1cnc2c(N[C@@H]3CCC[C@H]3O)ncnc21 [Example 8, N-(2R-Hydroxy-cyclopent-(R)-yl)-5′-O-(2,2,2-trifluoro-ethyl)-adenosine]	239.40	–	–
O[C@@H]1[C@H](O)[C@@H](COCC(F)(F)F)O[C@H]1n1cnc2c(Nc3ccc(F)cc3)ncnc21 [Example 9, N-(4-Fluoro-phenyl)-5′-O-(2,2,2-trifluoro-ethyl)-adenosine]	298	19.7	–
O[C@@H]1[C@H](O)[C@@H](COC(F)(F)F)O[C@H]1n1cnc2c(N[C@H]3CCC[C@@H]3F)ncnc21 [Example 12, N-(2S-Fluoro-cyclopent-(S)-yl)-5′-O-trifluoromethyl-adenosine]	–	>226	–
O[C@@H]1[C@H](O)[C@@H](COC(F)(F)F)O[C@H]1n1cnc2c(NC3CCSCC3)ncnc21 [Example 13, N-(Tetrahydro-thiopyran-4-yl)-5′-O-trifluoromethyl-adenosine]	11.1	>276	–
O[C@@H]1[C@H](O)[C@@H](COC(F)(F)F)O[C@H]1n1cnc2c(Nc3ccc(F)c(F)c3)ncnc21 [Example 14, N-(3,4-Difluoro-phenyl)-5′-O-trifluoromethyl-adenosine]	20.50	197.3	–
O[C@@H]1[C@H](O)[C@@H](COC(F)(F)F)O[C@H]1n1cnc2c(Nc3cccc(F)c3)ncnc21 [Example 15, N-(3-Fluoro-phenyl)-5′-O-trifluoromethyl-adenosine]	23.2	–	–
O=S1(=O)CCC(Nc2ncnc3c2ncn3[C@@H]2O[C@H](COC(F)(F)F)[C@@H](O)[C@H]2O)CC1 [Example 16, N-(1,1-Dioxo-hexahydro-1δ6-thiopyran-4-yl)-5′-O-trifluoromethyl-adenosine]	79.50	>207	–
CC(C)(C)Nc1ncnc2c1ncn2[C@@H]1O[C@H](COC(F)(F)F)[C@@H](O)[C@H]1O [Example 17, N-tert-Butyl-5′-O-trifiuoromethyl-adenosine]	–	>207	–
CCOC(=O)N1CCC(Nc2ncnc3c2ncn3[C@@H]2O[C@H](COC(F)(F)F)[C@@H](O)[C@H]2O)CC1 [Example 18, 4-[9-(3R,4S-Dihydroxy-5R-trifluoromethoxymethyl-tetrahydro-furan-2R-yl)-9H-purin-6-ylamino]-piperidine-1-carboxylic Acid Ethyl Ester]	5.32	>202	–
O[C@@H]1[C@H](O)[C@@H](COC(F)(F)F)O[C@H]1n1cnc2c(N[C@H]3CCC[C@@H]3O)ncnc21 [Example 19, N-(2S-Hydroxy-cyclopent-(S)-yl)-5′-O-trifluoromethyl-adenosine]	–	>150	–
O[C@@H]1[C@H](O)[C@@H](COC(F)(F)F)O[C@H]1n1cnc2c(N[C@@H]3CCOC3)ncnc21 [Example 21, N-(Tetrahydro-furan-3R-yl)-5′-O-trifluoromethyl-adenosine]	–	>175	–
O[C@@H]1[C@H](O)[C@@H](COC(F)(F)F)O[C@H]1n1cnc2c(N[C@H]3CCOC3)ncnc21 [Example 22, N-(Tetrahydro-furan-3S-yl)-5′-O-trifluoromethyl-adenosine]	–	>63	–
CC(=O)NCCNc1ncnc2c1ncn2[C@@H]1O[C@H](COC(F)(F)F)[C@@H](O)[C@H]1O [Example 23, N-{2-[9-(3R,4S-Dihydroxy-5R-trifluoromethoxymethyl-tetrahydro-furan-2R-yl)-9H-purin-6-ylamino]-ethyl}-acetamide]	12.52	>175	–
CCOC(=O)N1CCC(Nc2nc(C)nc3c2ncn3[C@@H]2O[C@H](COC(F)(F)F)[C@@H](O)[C@H]2O)CC1 [Example 24, 4-[9-(3R,4S-Dihydroxy-5R-trifluoromethoxymethyl-tetrahydro-furan-2R-yl)-2-methyl-9H-purin-6-ylamino]-piperidine-1-carboxylic Acid Ethyl Ester]	51.70	>134	–
Cc1nc(NC2CCOCC2)c2ncn([C@@H]3O[C@H](COC(F)(F)F)[C@@H](O)[C@H]3O)c2n1 [Example 25, 2-Methyl N-(tetrahydro-pyran-4-yl)-5′-O-trifluoromethyl-adenosine]	32	–	–
